Results from ChEMBL document CHEMBL5518220, “The Discovery of 7-Isopropoxy-2-(1-methyl-2-oxabicyclo[2.1.1]hexan-4-yl)-N-(6-methylpyrazolo[1,5-a]pyrimidin-3-yl)imidazo[1,2-a]pyrimidine-6-carboxamide (BIO-7488), a Potent, Selective, and CNS-Penetrant IRAK4 Inhibitor for the Treatment of Ischemic Stroke” (J Med Chem, 2024).
pIC50: −log10 of the molar value. Active and inactive are the calls of the source. The rule behind the calls is not given here.

How the values were obtained:
[1] = Metabolic stability in human liver microsomes assessed as intrinsic clearance; format: ADME, Microsome; conditions: read-out: CLH
[2] = Metabolic stability in rat liver microsomes assessed as intrinsic clearance; format: ADME, Microsome; conditions: read-out: CLH
MDR1 (P-gp) = experiment: Efflux ratio of apparent permeability across basolateral to apical side over apical to basolateral side in MDCK-MDR1 cells at 1 uM incubated for 120 mins by LC-MS/MS analysis; format: ADME, cell-based, Canis lupus familiaris; conditions: dog
[3] = Metabolic stability in human hepatocytes assessed as intrinsic clearance; format: ADME, cell-based, Hepatocyte; conditions: read-out: CLH
[4] = Metabolic stability in rat hepatocytes assessed as intrinsic clearance; format: ADME, cell-based, Hepatocyte; conditions: read-out: CLH
[5] = Clearance in rat at 1 mg/kg, iv by LC-MS/MS analysis; format: ADME, organism-based; conditions: in vivo
[6] = Unbound clearance in rat at 1 mg/kg, iv by LC-MS/MS analysis; format: ADME, organism-based; conditions: in vivo
[7] = Unbound brain-to-plasma concentration ratio in iv dosed rat measured at 4 to 24 hrs by LC-MS/MS analysis; format: ADME, organism-based; conditions: brain and plasma, time 4-24 hrs, read-out: K(p,uu,brain)
[8] = molecular target: T1, Interleukin-1 receptor-associated kinase 4 (Homo sapiens, UniProt Q9NWZ3)
T1 sequence (Q9NWZ3 whole entry): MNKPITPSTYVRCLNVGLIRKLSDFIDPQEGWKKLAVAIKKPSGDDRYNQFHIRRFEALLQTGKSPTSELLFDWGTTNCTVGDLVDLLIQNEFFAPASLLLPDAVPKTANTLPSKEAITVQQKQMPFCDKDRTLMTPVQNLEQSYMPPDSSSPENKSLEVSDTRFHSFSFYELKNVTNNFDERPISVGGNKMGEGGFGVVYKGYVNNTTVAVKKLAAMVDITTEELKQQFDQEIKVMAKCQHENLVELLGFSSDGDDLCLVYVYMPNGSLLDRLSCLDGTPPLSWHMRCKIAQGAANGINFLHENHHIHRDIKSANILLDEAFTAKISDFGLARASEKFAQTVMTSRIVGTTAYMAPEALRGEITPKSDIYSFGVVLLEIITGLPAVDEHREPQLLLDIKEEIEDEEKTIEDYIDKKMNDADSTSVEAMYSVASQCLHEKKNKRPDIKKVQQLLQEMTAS

[9] = molecular target: T2, Voltage-gated inwardly rectifying potassium channel KCNH2 (Homo sapiens, UniProt Q12809); experiment: Inhibition of hERG by patch clamp method; format: toxicity
T2 sequence (Q12809 whole entry): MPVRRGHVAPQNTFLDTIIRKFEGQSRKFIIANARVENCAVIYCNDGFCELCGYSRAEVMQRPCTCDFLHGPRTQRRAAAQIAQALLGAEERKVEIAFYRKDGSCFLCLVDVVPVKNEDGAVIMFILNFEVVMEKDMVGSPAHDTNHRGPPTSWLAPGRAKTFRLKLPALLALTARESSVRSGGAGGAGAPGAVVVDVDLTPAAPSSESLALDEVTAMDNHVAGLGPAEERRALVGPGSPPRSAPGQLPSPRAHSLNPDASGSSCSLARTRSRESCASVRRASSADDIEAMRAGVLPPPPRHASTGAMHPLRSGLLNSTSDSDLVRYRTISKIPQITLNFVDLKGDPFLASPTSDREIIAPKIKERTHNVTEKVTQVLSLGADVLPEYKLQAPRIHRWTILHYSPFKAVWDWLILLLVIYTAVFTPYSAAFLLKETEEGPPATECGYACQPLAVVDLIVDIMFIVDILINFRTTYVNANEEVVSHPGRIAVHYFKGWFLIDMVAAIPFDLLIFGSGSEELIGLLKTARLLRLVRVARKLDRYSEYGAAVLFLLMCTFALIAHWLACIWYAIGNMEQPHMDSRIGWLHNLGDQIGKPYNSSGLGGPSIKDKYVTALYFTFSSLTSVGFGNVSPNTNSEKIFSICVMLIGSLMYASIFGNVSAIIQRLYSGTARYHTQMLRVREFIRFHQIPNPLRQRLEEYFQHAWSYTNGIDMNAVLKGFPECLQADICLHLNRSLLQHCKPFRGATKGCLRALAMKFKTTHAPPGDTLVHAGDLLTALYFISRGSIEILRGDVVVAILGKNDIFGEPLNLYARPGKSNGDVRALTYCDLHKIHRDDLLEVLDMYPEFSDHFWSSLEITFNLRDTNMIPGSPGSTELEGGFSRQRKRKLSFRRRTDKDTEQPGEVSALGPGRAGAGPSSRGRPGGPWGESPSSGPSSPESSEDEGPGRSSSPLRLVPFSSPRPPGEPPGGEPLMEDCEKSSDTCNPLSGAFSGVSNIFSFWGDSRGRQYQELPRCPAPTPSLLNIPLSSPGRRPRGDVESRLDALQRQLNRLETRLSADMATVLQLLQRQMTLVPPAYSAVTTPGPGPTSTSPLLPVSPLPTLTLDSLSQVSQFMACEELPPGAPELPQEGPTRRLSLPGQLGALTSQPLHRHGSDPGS

[10] = Lipophilicity, logD of compound in n-octanol and aqueous buffer at pH 7.4 by RP-HPLC method; format: physicochemical
[11] = molecular target: T2, Voltage-gated inwardly rectifying potassium channel KCNH2; experiment: Displacement of [35S]-MK499 from hERG by […]; format: toxicity
Mus musculus [12] = experiment: Inhibition of LPS-induced IL-1beta production in po dosed female C57BL/6 mouse assessed as reduction in IL-1beta level in plasma administered via oral gavage for 60 mins followed by LPS stimulation at 0.5 mg/kg, ip measured after 90 mins by ELISA; format: functional, organism-based
Mus musculus [13] = experiment: Inhibition of LPS-induced TNF-alpha production in po dosed female C57BL/6 mouse assessed as reduction in TNF-alpha level in plasma administered via oral gavage for 60 mins followed by LPS stimulation at 0.5 mg/kg, ip measured after 90 mins by ELISA; format: functional, organism-based
Mus musculus [14] = experiment: Inhibition of LPS-induced IL-6 production in po dosed female C57BL/6 mouse assessed as reduction in IL-6 level in plasma administered via oral gavage for 60 mins followed by LPS stimulation at 0.5 mg/kg, ip measured after 90 mins by ELISA; format: functional, organism-based
Mus musculus [15] = experiment: Inhibition of LPS-induced IL-1beta production in po dosed female C57BL/6 mouse assessed as reduction in IL-1beta level in brain administered via oral gavage for 60 mins followed by LPS stimulation at 0.6 ug, icv measured after 120 mins by ELISA; format: functional, organism-based; conditions: dose 10-30 mg/kg, time 180.0 min
Mus musculus [16] = experiment: Inhibition of LPS-induced TNF-alpha production in po dosed female C57BL/6 mouse assessed as reduction in TNF-alpha level in brain administered via oral gavage for 60 mins followed by LPS stimulation at 0.6 ug, icv measured after 120 mins by ELISA; format: functional, organism-based; conditions: dose 10-30 mg/kg, time 180.0 min
Mus musculus [17] = experiment: Inhibition of LPS-induced IL-6 production in po dosed female C57BL/6 mouse assessed as reduction in IL-6 level in brain administered via oral gavage for 60 mins followed by LPS stimulation at 0.6 ug, icv measured after 120 mins by ELISA; format: functional, organism-based; conditions: dose 10-30 mg/kg, time 180.0 min
[18] = Inhibition of […] induced IL-1beta production in human whole blood preincubated for 1 hr followed by R848 stimulation and measured after 4 hrs by MSD assay; format: functional, tissue-based
Mus musculus [19] = experiment: Inhibition of IL-1beta production in male C57BL/6 mouse model of distal hypoxic-middle cerebral artery occlusion stroke assessed as reduction in IL-1beta level in brain at 10 to 30 mg/kg, po qd administered via oral gavage for 3 to 7 days starting from 1 hr 15 mins post cauterization by ELISA; format: functional, organism-based; conditions: dose 10-30 mg/kg, time 3-7 day
Mus musculus [20] = experiment: Inhibition of IL-6 production in male C57BL/6 mouse model of distal hypoxic-middle cerebral artery occlusion stroke assessed as reduction in IL-6 level in brain at 10 to 30 mg/kg, po qd administered via oral gavage for 3 to 7 days starting from 1 hr 15 mins post cauterization by ELISA; format: functional, organism-based; conditions: dose 10-30 mg/kg, time 3-7 day
Mus musculus [21] = experiment: Inhibition of IL-6 production in male C57BL/6 mouse model of distal hypoxic-middle cerebral artery occlusion stroke assessed as reduction in IL-6 level in CNS at 10 to 30 mg/kg, po qd administered via oral gavage for 3 days starting from 1 hr 15 mins post cauterization by ELISA; format: functional, organism-based; conditions: dose 10-30 mg/kg, time 3.0 day
Mus musculus [22] = experiment: Inhibition of TNF-alpha production in male C57BL/6 mouse model of distal hypoxic-middle cerebral artery occlusion stroke assessed as reduction in TNF-alpha level in brain at 10 to 30 mg/kg, po qd administered via oral gavage for 3 days starting from 1 hr 15 mins post cauterization by ELISA; format: functional, organism-based; conditions: dose 10-30 mg/kg, time 3.0 day
Mus musculus [23] = experiment: Inhibition of TNF-alpha production in male C57BL/6 mouse model of distal hypoxic-middle cerebral artery occlusion stroke assessed as reduction in TNF-alpha level in CNS at 10 to 30 mg/kg, po qd administered via oral gavage for 3 to 7 days starting from 1 hr 15 mins post cauterization by ELISA; format: functional, organism-based; conditions: dose 10-30 mg/kg, time 3-7 day
[24] = Free drug level in male C57BL/6 mouse brain at 30 mg/kg, po qd measured on 3 to 7 days; format: ADME, organism-based; conditions: in vivo, time 3-7 day

SMILES | CLint scaled [1] [mL/min/kg] | CLint scaled [2] [mL/min/kg] | efflux ratio at 2 h, 1 µM (MDR1 (P-gp)) | CLint scaled [3] [mL/min/kg] | CLint scaled [4] [mL/min/kg] | clearance [5] [mL/min/kg] | CL free [6] [mL/min/kg] | Kp uu [7] | pIC50 [8] | further results
COc1cc(NC(=O)c2cccc(C(F)(F)F)n2)cn2cc(C3CCOCC3)nc12 | < 5 | 20 |  | 8 | < 3 | 10 | 45 | 0.2 |  | 
CCOc1cc2nc(C3CC3)cn2cc1NC(=O)c1cccc(C(F)F)n1 | 20 | 145 | 0.4 |  |  |  |  |  |  | 
CC(C)Oc1nc2nc(C34COC(C)(C3)C4)cn2cc1C(=O)Nc1cnn2cccnc12 |  |  |  |  |  | 10 | 64 | 0.2 | 9.40 | pIC50 [9]: 4.71; logD [10]: 2.1
CC(C)Oc1cc2nc(C3CCOCC3)cn2cc1NC(=O)c1cccc(C(F)F)n1 | 30 | 61 |  | 75 | 37 | 22 | 1788 | 0.4 | 9.70 | 
CC(C)Oc1cc2nc(C34COC(C)(C3)C4)cn2cc1C(=O)Nc1cnn2cccnc12 |  |  |  |  |  | 11 | 143 | 0.1 |  | pIC50 [9]: < 4.52; logD [10]: 2.1
Cc1cc2nc(C3CCOCC3)cn2cc1NC(=O)c1cccc(C(F)F)n1 | < 5 | 20 |  | 18 | 36 | 16 | 149 | 1 | 6.82 | 
CCOc1cc2nc(CCOC)cn2cc1NC(=O)c1cccc(C(F)F)n1 | 32 | 240 | 0.5 |  |  |  |  |  |  | 
CC(C)Oc1cc2nc(C34COC(C)(C3)C4)cn2cc1C(=O)Nc1cccc(C(F)F)n1 | < 5 | 11 |  | 5.3 | < 3 | 15 | 563 | 0.4 | 9.77 | pIC50 [9]: 5.66; inhibition (Mus musculus [12]): Dose-Dependent Effect; inhibition (Mus musculus [13]): Dose-Dependent Effect; inhibition (Mus musculus [14]): Dose-Dependent Effect; inhibition (Mus musculus [15]): Dose-Dependent Effect; inhibition (Mus musculus [16]): Dose-Dependent Effect; inhibition (Mus musculus [17]): Dose-Dependent Effect; pIC50 ([18]; Homo sapiens, Blood): 6.51; fIC50 ([18]; time 5 hrs): 6 nM; inhibition (Mus musculus [19]): Active; inhibition (Mus musculus [20]): Active; inhibition (Mus musculus [21]): inactive; inhibition (Mus musculus [22]): inactive; inhibition (Mus musculus [23]): inactive; Drug uptake(free) [24]: 100 nM; logD [10]: 4.4
CCOc1cc2nc(C34COC(C)(C3)C4)cn2cc1NC(=O)c1cccc(C(F)F)n1 | 5.4 | < 11 | 1.4 | 19 | 11 | 37 | 1388 | 0.4 | 9.70 | pIC50 [9]: 6.11
Cc1cc(NC(=O)c2cccc(C(F)F)n2)cn2cc(C3CCOCC3)nc12 | 11 | 26 |  | 16 | 12 | 20 | 227 | 0.7 | 6.89 | 
CC(C)Oc1cc2nc(C3CCOCC3)cn2cc1C(=O)Nc1cccc(C(F)F)n1 | 21 | 81 |  | 28 | 29 |  |  |  | 9.60 | 

Second part, led by results:

CLint scaled [1] [mL/min/kg] | CLint scaled [2] [mL/min/kg] | efflux ratio at 2 h, 1 µM (MDR1 (P-gp)) | CLint scaled [3] [mL/min/kg] | CLint scaled [4] [mL/min/kg] | clearance [5] [mL/min/kg] | CL free [6] [mL/min/kg] | Kp uu [7] | pIC50 [8] | SMILES | further results
< 4.7 | < 10.7 | 5.5 |  |  |  |  |  |  | CCOc1cc2nc(C(C)(C)O)cn2cc1NC(=O)c1cccc(C(F)F)n1 | 
 |  |  |  |  |  |  |  | 7.79 | CC(C)Oc1nc2nc(C34COC(C)(C3)C4)cn2cc1C(=O)Nc1cnn2ccncc12 | 
27 | 40 | 2 | 45 | 63 | 57 | 1738 | 0.3 | 9.22 | CCOc1cc2nc(C3CCOCC3)cn2cc1NC(=O)c1cccc(C(F)F)n1 | 
 |  |  |  |  | 2.6 | 28 | 0.7 |  | Cc1cnc2c(NC(=O)c3cn4cc(C56COC(C)(C5)C6)nc4c(F)c3OC(C)C)cnn2c1 | pIC50 [11]: < 4.22; logD [10]: 2.5
55 | 266 | 1.1 |  |  |  |  |  | 8.85 | CCOc1cc2nc(CCCOC)cn2cc1NC(=O)c1cccc(C(F)F)n1 | 
 |  |  |  |  | 7.2 | 67 | 0.2 |  | CC(C)Oc1nc2nc(C34COC(C)(C3)C4)cn2cc1C(=O)Nc1cnn2cc(F)cnc12 | pIC50 [9]: 4.74; logD [10]: 2.4
68 | 198 | 0.7 |  |  |  |  |  |  | CCOc1cc2nc(C3(OC)CC3)cn2cc1NC(=O)c1cccc(C(F)F)n1 | 
